Source: paper PMC3638264 (Journal of Medicinal Chemistry, 2013)
Where a chain is given by its changes, count along the chain named. One block for each compound: values may come before it.

Tests used:
LNCaP-AKR1C3 cells = test: inhibition of testosterone formation in LNCaP-AKR1C3 cells; type: cell-based; details: 30 μM inhibitor, 0.1 μM Δ4-AD, 48 h
AKR1C2 = molecular target: T1, AKR1C2 (Homo sapiens, UniProt P52895); test: AKR1C2 inhibition, NADP+ dependent oxidation of S-tetralol; details: for IC50 Ratio 1C2/1C3: selectivity for AKR1C3 over AKR1C2
T1 sequence (P52895 1-323): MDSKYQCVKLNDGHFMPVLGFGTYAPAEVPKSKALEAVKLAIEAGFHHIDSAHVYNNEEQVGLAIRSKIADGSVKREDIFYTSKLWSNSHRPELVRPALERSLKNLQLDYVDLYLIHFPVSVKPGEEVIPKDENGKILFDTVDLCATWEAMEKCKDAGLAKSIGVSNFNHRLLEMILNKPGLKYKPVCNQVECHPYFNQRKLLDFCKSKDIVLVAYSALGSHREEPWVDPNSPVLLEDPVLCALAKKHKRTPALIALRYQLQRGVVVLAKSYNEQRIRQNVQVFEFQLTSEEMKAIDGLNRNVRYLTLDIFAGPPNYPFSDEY

AKR1C3 = molecular target: T2, AKR1C3 (Homo sapiens, UniProt P42330); test: AKR1C3 inhibition, NADP+ dependent oxidation of S-tetralol; details: for loss of inhibitory potency for AKR1C3: relative to indomethacin (1); for loss of AKR1C3 potency: relative to 44
T2 sequence (P42330 1-323): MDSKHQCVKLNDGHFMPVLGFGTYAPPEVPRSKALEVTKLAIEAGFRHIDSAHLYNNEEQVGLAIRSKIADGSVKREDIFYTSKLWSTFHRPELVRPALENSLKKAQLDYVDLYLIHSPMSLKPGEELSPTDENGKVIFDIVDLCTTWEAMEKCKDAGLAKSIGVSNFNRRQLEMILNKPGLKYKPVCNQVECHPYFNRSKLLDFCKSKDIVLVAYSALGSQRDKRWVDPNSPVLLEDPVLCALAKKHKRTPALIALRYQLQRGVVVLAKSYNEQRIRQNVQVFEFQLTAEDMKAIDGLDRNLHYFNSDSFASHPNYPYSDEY

AKR1C1 = molecular target: T3, AKR1C1 (Homo sapiens, UniProt Q04828); type: biochemical; details: selectivity for AKR1C3 over AKR1C1
T3 sequence (Q04828 1-323): T1 sequence (P52895 1-323) with V38T, H47R, V54L, S87C, M151V, H170R, L172Q

AKR1C4 = molecular target: T4, AKR1C4 (Homo sapiens, UniProt P17516); type: biochemical; details: selectivity for AKR1C3 over AKR1C4
T4 sequence (P17516 1-323): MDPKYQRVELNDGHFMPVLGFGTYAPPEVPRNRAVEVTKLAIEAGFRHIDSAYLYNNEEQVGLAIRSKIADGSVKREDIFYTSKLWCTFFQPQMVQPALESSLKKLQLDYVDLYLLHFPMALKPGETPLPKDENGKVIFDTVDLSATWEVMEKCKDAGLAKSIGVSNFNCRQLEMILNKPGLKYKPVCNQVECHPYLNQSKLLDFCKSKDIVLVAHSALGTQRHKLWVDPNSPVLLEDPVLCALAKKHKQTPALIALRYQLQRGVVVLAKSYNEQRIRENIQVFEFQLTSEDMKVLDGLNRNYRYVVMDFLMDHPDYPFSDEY

oCOX-1 = molecular target: T5, oCOX-1 (Ovis aries, UniProt P05979); test: continuous colorimetric COX-1 assay; type: biochemical, ovine; details: for inhibitory activity on COX-1 at highest concentration tested: 100 μM inhibitor
T5 sequence (P05979 25-600): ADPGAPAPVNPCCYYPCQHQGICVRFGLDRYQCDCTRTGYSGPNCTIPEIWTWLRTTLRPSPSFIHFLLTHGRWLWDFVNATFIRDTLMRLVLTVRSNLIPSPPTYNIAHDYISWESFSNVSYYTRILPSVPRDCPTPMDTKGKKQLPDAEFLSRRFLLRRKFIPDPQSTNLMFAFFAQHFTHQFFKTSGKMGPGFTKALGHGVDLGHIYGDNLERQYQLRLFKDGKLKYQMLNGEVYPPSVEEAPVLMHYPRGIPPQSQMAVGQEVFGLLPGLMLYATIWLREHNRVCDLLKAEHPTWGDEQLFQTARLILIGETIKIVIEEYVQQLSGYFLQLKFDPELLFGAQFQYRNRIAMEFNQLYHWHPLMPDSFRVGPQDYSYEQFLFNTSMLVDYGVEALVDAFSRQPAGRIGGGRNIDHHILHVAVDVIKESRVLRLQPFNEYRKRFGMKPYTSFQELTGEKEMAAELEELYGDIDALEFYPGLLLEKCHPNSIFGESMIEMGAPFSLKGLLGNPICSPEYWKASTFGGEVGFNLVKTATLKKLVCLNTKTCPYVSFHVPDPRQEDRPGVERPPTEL

mouse COX-2 = molecular target: T6, mouse COX-2 (Mus musculus, UniProt Q05769); test: discontinuous 14C-AA TLC-based COX assay, COX-2; details: for inhibition at 25 µM: read-out: wt mCOX 2 % inhib. @ 25 μM, 25 μM inhibitor, 5 μM AA; for wt mCOX 2 plateau of inhibition (P @ %): plateau at higher inhibitor concentrations
T6 sequence (Q05769 18-604): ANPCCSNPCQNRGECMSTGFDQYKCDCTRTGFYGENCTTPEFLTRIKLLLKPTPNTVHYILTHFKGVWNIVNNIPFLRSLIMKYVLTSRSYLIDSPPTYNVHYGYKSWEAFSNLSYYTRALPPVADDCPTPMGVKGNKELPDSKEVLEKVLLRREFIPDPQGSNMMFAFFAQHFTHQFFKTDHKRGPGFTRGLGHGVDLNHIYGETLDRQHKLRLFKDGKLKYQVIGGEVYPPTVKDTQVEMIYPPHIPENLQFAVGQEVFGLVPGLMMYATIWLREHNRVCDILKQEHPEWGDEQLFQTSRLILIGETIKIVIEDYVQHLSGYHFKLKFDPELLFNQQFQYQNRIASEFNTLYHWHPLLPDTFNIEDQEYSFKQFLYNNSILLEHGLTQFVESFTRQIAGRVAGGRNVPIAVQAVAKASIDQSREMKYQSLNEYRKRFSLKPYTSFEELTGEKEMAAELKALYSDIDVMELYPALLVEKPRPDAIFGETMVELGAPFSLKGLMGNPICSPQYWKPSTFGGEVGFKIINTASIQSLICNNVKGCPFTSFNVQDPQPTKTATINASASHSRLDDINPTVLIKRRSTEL

ovine COX-1 = molecular target: T7, ovine COX-1 (Ovis aries, UniProt P05979); test: discontinuous 14C-AA TLC-based COX assay, COX-1; details: for inhibition at 25 µM: read-out: oCOX 1 % inhib. @ 25 μM, 25 μM inhibitor, 5 μM AA
T7 sequence (P05979 25-600): T5 sequence (P05979 25-600)

SMILES: COc1ccc2c(c1)c(CC(=O)O)c(C)n2C(=O)c1ccc(Cl)cc1 [Compound 1, 2-(1-(4-chlorobenzoyl)-5-methoxy-2-methyl-1H-indol-3-yl)acetic acid, reference compound]
inhibition of testosterone formation (LNCaP-AKR1C3 cells): robust inhibition

SMILES: COc1ccc(C(=O)n2c(C)c(CC(=O)O)c3cc(OC)ccc32)cc1 [Compound 4]
selectivity for AKR1C3 over AKR1C2 (AKR1C2): over 300 fold

SMILES: COC(=O)Cc1c(C)n(C(=O)c2ccc(Cl)cc2)c2ccc(OC)cc12 [Compound 10]
loss of inhibitory potency for AKR1C3 (AKR1C3): 57 fold

SMILES: COC(=O)Cc1c(C)n(C(=O)c2ccc(OC)cc2)c2ccc(OC)cc12 [Compound 13]
IC50 Ratio 1C2/1C3 (AKR1C2): >12

SMILES: COc1ccc2c(c1)c(CC(=O)NS(C)(=O)=O)c(C)n2C(=O)c1ccc(Cl)cc1 [Compound 14, 2-(1-(4-Chlorobenzoyl)-5-methoxy-2-methyl-1H-indol-3-yl)-N-(methylsulfonyl)acetamide]
loss of inhibitory potency for AKR1C3 (AKR1C3): 22 fold

SMILES: COc1ccc2c(c1)c(CC(=O)NS(=O)(=O)C(F)(F)F)c(C)n2C(=O)c1ccc(Cl)cc1 [Compound 15]
IC50 ratio AKR1C1/AKR1C3 (value in parentheses) (AKR1C1): > 135 | IC50 ratio AKR1C4/AKR1C3 (value in parentheses) (AKR1C4): > 135

SMILES: COc1ccc2c(c1)c(CCC(=O)O)c(C)n2C(=O)c1ccc(Cl)cc1 [Compound 16, 3-(1-(4-Chlorobenzoyl)-5-methoxy-2-methyl-1H-indol-3-yl)propanoic Acid]
IC50 (oCOX-1): 48.8 µM

SMILES: COc1ccc2c(c1)cc(C)n2C(=O)c1ccc(Cl)cc1 [Compound 19]
loss of inhibitory potency for AKR1C3 (AKR1C3): 36 fold

SMILES: COc1ccc2c(c1)c(CC(=O)O)cn2C(=O)c1ccc(Cl)cc1 [Compound 20, 2-(1-(4-Chlorobenzoyl)-5-methoxy-1H-indol-3-yl)acetic Acid]
slope factor of inhibition dose–response curve (AKR1C3): 1

Continued, in another order:

IC50 Ratio 1C2/1C3 (AKR1C2): >8
SMILES: COC(=O)Cc1cn(C(=O)c2ccc(Cl)cc2)c2ccc(OC)cc12 [Compound 21]

IC50 Ratio 1C2/1C3 (AKR1C2): >20
SMILES: COc1ccc2c(c1)c(CC(=O)O)cn2C(=O)c1ccc(F)cc1 [Compound 22]

increase in AKR1C2 inhibitory potency (AKR1C2; relative to des-methyl-indomethacin (20)): 4 fold
SMILES: O=C(O)Cc1cn(C(=O)c2ccc(Cl)cc2)c2ccc(F)cc12 [Compound 25]

IC50 (oCOX-1): 2.19 µM
SMILES: COc1ccc2c(c1)c(CC(=O)NS(=O)(=O)C(F)(F)F)cn2C(=O)c1ccc(Cl)cc1 [Compound 27, 2-(1-(4-Chlorobenzoyl)-5-methoxy-1H-indol-3-yl)-N-((trifluoromethyl)sulfonyl)acetamide]

IC50 Ratio 1C2/1C3 (AKR1C2): >4
SMILES: CCC(=O)Cc1cn(C(=O)OC)c2ccc(OC)cc12 [Compound 43]

inhibition at 4 µM (mouse COX-2; read-out: wt mCOX 2 % inhib. @ 4 μM, 4 μM inhibitor, 5 μM AA): < 18% | inhibition at 25 µM (mouse COX-2): ≤ 34% | IC50 (oCOX-1): > 100 µM
SMILES: COc1ccc2c(c1)c(C)c(CCC(=O)O)n2C(=O)c1ccc(Cl)cc1 [Compound 44, 3-(1-(4-Chlorobenzoyl)-5-methoxy-3-methyl-1H-indol-2-yl)propanoic Acid]
inhibition of testosterone formation (LNCaP-AKR1C3 cells): robust inhibition | inhibitory activity on COX-1 at highest concentration tested (oCOX-1): did not display significant inhibitory activity

inhibition at 25 µM (mouse COX-2): ≤ 34%
SMILES: CCc1c(CCC(=O)O)n(C(=O)c2ccc(Cl)cc2)c2ccc(OC)cc12 [Compound 47, 3-(1-(4-Chlorobenzoyl)-3-ethyl-5-methoxy-1H-indol-2-yl)propanoic Acid]

inhibition at 25 µM (mouse COX-2): ≤ 34% | inhibition at 25 µM (ovine COX-1): ≤ 34%
SMILES: COc1ccc2c(c1)c(C)c(CC(C)(C)C(=O)O)n2C(=O)c1ccc(Cl)cc1 [Compound 48, 3-(1-(4-Chlorobenzoyl)-5-methoxy-3-methyl-1H-indol-2-yl)-2,2-dimethylpropanoic Acid]

loss of AKR1C3 potency (AKR1C3): 2 fold
SMILES: COc1ccc2c(c1)c(C)c(CC(C)C(=O)O)n2C(=O)c1ccc(Cl)cc1 (centres unmarked) [Compound 49, 3-(1-(4-Chlorobenzoyl)-5-methoxy-3-methyl-1H-indol-2-yl)-2-methylpropanoic Acid]

inhibition at 25 µM (mouse COX-2): ≤ 34% | loss of AKR1C3 potency (AKR1C3): 3 fold | inhibition at 25 µM (ovine COX-1): ≤ 34% | IC50 (oCOX-1): > 100 µM
SMILES: COc1ccc2c(c1)c(C)c(CCC(=O)NS(C)(=O)=O)n2C(=O)c1ccc(Cl)cc1 [Compound 50, 3-(1-(4-Chlorobenzoyl)-5-methoxy-3-methyl-1H-indol-2-yl)-N-(methylsulfonyl)propanamide]
inhibition of testosterone formation (LNCaP-AKR1C3 cells): robust inhibition | inhibitory activity on COX-1 at highest concentration tested (oCOX-1): did not display significant inhibitory activity

wt mCOX 2 plateau of inhibition (P @ %) (mouse COX-2): 61.4% | IC50 (oCOX-1): 0.75 µM
SMILES: COc1ccc2c(c1)c1c(n2C(=O)c2ccc(Cl)cc2)CCC(C(=O)O)C1 (centres unmarked) [Compound 61, 9-(4-Chlorobenzoyl)-6-methoxy-2,3,4,9-tetrahydro-1H-carbazole-3-carboxylic Acid]

selectivity for AKR1C3 over AKR1C2 (AKR1C2): 20 fold | IC50 Ratio 1C2/1C3 (AKR1C2): > 20
SMILES: COc1ccc2c(c1)c1c(n2C(=O)c2ccc(Cl)cc2)CCC(C(=O)NS(C)(=O)=O)C1 (centres unmarked) [Compound 63, 9-(4-Chlorobenzoyl)-6-methoxy-N-(methylsulfonyl)-2,3,4,9-tetrahydro-1H-carbazole-3-carboxamide]

IC50 (mouse COX-2): 1480 nM | wt mCOX 2 plateau of inhibition (P @ %) (mouse COX-2): 62.6% | IC50 (ovine COX-1): 2400 nM | oCOX 1 plateau of inhibition (P @ %) (ovine COX-1; plateau at higher inhibitor concentrations): 56.1%
SMILES: COc1ccc2c(c1)c1c(n2C(=O)c2ccc(Cl)cc2)CC(C(=O)O)CC1 (centres unmarked) [Compound 64, 9-(4-Chlorobenzoyl)-6-methoxy-2,3,4,9-tetrahydro-1H-carbazole-2-carboxylic Acid]
